This is an account of results in publication PMC6576746, “Rational discovery of dual-indication multi-target PDE/Kinase inhibitor for precision anti-cancer therapy using structural systems pharmacology” (PLoS Computational Biology, 2019).

Test in all cases: biochemical
Common to all, as to set-up: DiscoverX KinomeScan competition binding assay across human kinases; per cent of control at 10 and 100 uM

One experiment has as its target T1, PKAC-beta (Homo sapiens, UniProt P22694).
T1 construct: gene PRKACB
The following applies: competition binding, % of control; read-out: Percent Control (100 uM Levosimendan). In outline: (§1)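 KinomeScan competition binding was run across a human kinase panel at 10 μM and 100 μM levosimendan. Results are %control = (test − positive control)/(negative control − positive control) × 100.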

A further experiment concerns the target T2, MEK3 (Homo sapiens, UniProt P46734).
T2 construct: gene MAP2K3
The following applies: competition binding, % of control; read-out: Percent Control (100 uM Levosimendan). A digest of the protocol: as §1

The next experiment addresses HIPK1 (Homo sapiens, UniProt Q86Z02). The following applies: competition binding, % of control. In outline: as §1
The next experiment has as its target FGFR1 (Homo sapiens, UniProt P11362). Particulars: competition binding, % of control. In outline: as §1
The next experiment has as its target BMPR1A (Homo sapiens, UniProt P36894). Particulars: competition binding, % of control; read-out: Percent Control (100 uM Levosimendan). In outline:
as §1

The target of another experiment is PRKD3 (Homo sapiens, UniProt O94806). The following applies: competition binding, % of control; read-out: Percent Control (100 uM Levosimendan). In outline: as §1
The next experiment addresses T3, ABL1-nonphosphorylated (Homo sapiens, UniProt P00519).
T3 construct: nonphosphorylated
The following applies: competition binding, % of control. In outline: as §1

For another experiment, the target named is CHEK1 (Homo sapiens, UniProt O14757). Particulars: competition binding, % of control; read-out: Percent Control (100 uM Levosimendan). A digest of the protocol:
as §1

The next experiment deals with AKT3 (Homo sapiens, UniProt Q9Y243). The following applies: competition binding, % of control. In outline: as §1
For the next experiment, the target named is TAOK1 (Homo sapiens, UniProt Q7L7X3). The following applies: competition binding, % of control; read-out: Percent Control (100 uM Levosimendan). A digest of the protocol:
as §1

In the next experiment the target is PAK6 (Homo sapiens, UniProt Q9NQU5). Particulars: competition binding, % of control; read-out: Percent Control (100 uM Levosimendan). A digest of the protocol:
as §1

The target of a further experiment is BMPR1B (Homo sapiens, UniProt O00238). Particulars: competition binding, % of control. In outline:
as §1

In the next experiment the target is ULK3 (Homo sapiens, UniProt Q6PHR2). Particulars: competition binding, % of control; read-out: Percent Control (100 uM Levosimendan). A digest of the protocol:
as §1

In a further experiment the target is T4, MRCKB (Homo sapiens, UniProt Q9Y5S2).
T4 construct: gene CDC42BPB
Particulars: competition binding, % of control; read-out: Percent Control (100 uM Levosimendan). In outline:
as §1

The next experiment has as its target CDK8 (Homo sapiens, UniProt P49336). Particulars: competition binding, % of control; read-out: Percent Control (100 uM Levosimendan). A digest of the protocol: as §1
Another experiment has as its target CSNK2A1 (Homo sapiens, UniProt P68400). The following applies: competition binding, % of control; read-out: Percent Control (100 uM Levosimendan). In outline:
as §1

The target in a further experiment is ERBB4 (Homo sapiens, UniProt Q15303). Particulars: competition binding, % of control; read-out: Percent Control (100 uM Levosimendan). In outline:
as §1

A further experiment deals with PIK3CA(E542K) (Homo sapiens, UniProt P42336, E542K). The following applies: competition binding, % of control; read-out: Percent Control (100 uM Levosimendan). A digest of the protocol: as §1
The target in a further experiment is NEK10 (Homo sapiens, UniProt Q6ZWH5). The following applies: competition binding, % of control; read-out: Percent Control (100 uM Levosimendan). In outline: as §1
The mark [1] stands for this setting: read-out: Percent Control (10 uM Levosimendan).
[2] abbreviates: read-out: Percent Control (100 uM Levosimendan).

T3 sequence (P00519 whole entry): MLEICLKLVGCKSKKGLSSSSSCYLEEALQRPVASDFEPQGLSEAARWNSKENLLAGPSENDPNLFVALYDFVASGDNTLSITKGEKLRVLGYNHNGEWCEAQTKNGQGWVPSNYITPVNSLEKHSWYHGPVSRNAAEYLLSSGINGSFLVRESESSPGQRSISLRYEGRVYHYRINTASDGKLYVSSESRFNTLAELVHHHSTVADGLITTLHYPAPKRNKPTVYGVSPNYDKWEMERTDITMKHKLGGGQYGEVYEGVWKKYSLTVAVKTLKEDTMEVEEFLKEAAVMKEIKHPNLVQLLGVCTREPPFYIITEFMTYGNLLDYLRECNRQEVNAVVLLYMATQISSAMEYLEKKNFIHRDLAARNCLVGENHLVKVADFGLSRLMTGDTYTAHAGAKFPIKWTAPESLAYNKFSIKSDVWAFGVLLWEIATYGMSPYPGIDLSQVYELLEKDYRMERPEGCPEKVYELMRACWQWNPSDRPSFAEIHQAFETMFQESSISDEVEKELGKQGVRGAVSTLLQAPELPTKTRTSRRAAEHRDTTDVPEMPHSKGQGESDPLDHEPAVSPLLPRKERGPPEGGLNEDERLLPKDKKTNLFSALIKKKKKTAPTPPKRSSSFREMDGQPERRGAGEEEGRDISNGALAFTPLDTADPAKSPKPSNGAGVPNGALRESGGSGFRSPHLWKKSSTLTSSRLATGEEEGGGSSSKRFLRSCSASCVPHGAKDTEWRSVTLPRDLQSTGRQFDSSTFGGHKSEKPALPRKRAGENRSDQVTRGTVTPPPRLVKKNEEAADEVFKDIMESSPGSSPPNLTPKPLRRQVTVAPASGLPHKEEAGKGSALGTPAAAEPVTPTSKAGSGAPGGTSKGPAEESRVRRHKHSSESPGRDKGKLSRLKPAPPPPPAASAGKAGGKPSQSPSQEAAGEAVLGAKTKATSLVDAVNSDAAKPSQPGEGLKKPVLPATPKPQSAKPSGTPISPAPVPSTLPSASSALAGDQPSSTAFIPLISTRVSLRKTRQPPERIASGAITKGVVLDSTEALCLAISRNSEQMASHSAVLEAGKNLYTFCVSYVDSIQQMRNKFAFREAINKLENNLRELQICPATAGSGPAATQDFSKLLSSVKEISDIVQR
Chain of BMPR1B (O00238 whole entry): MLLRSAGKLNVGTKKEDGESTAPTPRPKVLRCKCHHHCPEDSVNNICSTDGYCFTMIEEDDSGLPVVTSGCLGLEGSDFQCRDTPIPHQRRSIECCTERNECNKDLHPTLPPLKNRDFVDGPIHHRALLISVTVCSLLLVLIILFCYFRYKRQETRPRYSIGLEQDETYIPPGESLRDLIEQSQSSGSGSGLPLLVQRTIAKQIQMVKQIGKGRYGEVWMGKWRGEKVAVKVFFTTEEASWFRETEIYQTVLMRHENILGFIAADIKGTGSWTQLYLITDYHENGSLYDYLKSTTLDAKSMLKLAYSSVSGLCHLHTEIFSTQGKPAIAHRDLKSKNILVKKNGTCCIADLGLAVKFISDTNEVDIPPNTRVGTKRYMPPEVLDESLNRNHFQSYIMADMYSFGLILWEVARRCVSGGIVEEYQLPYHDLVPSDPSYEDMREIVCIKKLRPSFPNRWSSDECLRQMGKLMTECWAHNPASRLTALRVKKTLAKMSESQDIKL
Chain of AKT3 (Q9Y243 whole entry): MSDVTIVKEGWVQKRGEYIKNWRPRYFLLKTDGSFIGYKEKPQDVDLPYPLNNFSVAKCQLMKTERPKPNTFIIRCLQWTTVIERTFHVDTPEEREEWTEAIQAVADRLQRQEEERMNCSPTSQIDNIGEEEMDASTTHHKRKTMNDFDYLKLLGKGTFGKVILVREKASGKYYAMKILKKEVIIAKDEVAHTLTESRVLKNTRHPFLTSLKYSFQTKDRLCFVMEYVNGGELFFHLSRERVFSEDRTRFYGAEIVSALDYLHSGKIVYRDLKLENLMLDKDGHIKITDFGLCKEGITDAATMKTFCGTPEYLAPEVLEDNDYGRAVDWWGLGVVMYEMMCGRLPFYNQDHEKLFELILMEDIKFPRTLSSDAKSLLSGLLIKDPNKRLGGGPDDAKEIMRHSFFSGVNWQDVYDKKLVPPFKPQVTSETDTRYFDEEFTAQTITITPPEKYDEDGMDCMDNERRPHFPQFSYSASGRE
Chain of FGFR1 (P11362 whole entry): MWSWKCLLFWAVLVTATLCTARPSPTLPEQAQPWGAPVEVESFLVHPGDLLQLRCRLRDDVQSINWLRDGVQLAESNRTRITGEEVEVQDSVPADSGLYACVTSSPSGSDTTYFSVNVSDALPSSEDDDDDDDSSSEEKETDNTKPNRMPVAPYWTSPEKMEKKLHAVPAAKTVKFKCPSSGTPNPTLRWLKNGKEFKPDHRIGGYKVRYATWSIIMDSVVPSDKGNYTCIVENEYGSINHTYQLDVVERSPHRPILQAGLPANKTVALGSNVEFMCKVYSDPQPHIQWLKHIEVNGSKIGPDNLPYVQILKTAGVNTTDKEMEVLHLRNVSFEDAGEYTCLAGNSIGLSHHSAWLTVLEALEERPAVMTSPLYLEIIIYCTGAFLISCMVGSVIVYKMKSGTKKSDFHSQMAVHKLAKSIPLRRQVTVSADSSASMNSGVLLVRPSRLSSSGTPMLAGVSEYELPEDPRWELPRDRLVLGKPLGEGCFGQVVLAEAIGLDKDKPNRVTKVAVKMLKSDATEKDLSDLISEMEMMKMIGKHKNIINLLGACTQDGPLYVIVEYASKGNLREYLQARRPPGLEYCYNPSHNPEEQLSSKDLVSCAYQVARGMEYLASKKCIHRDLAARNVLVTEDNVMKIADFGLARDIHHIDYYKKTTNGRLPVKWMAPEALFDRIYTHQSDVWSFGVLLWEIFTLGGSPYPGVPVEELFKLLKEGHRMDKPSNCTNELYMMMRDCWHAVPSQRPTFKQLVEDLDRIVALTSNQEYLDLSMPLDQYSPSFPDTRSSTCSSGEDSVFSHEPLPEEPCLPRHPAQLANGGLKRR
Chain of HIPK1 (Q86Z02 whole entry): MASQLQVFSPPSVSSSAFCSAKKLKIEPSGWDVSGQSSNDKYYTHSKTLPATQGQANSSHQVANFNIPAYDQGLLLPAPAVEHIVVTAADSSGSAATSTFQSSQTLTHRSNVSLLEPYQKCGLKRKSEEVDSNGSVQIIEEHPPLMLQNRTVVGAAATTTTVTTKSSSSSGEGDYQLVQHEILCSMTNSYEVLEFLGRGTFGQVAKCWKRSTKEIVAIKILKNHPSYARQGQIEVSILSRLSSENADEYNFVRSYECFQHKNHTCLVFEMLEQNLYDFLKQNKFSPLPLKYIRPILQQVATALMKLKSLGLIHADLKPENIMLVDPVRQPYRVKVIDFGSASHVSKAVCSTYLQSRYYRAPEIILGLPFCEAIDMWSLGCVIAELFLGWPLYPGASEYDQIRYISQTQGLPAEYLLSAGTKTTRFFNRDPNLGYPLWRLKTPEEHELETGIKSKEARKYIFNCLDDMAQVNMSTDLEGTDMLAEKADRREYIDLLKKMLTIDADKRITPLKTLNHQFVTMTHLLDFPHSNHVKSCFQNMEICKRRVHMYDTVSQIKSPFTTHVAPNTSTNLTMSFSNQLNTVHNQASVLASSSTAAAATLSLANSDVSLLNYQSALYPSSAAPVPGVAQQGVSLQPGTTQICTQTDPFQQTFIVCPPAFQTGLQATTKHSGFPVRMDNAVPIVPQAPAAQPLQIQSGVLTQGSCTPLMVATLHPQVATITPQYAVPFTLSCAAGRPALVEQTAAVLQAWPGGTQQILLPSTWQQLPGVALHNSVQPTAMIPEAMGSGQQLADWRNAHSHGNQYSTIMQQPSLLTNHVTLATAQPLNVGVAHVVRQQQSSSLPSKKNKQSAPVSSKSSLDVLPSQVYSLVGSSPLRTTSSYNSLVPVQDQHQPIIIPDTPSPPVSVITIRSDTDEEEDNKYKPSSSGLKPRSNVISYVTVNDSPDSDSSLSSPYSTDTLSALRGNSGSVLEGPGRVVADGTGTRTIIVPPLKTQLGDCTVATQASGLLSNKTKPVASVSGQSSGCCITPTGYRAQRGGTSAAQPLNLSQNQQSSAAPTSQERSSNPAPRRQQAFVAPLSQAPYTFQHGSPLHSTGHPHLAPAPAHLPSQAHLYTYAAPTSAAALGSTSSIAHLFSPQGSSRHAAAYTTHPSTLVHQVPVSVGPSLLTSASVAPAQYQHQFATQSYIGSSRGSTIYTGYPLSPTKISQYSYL
T2 sequence (P46734 whole entry): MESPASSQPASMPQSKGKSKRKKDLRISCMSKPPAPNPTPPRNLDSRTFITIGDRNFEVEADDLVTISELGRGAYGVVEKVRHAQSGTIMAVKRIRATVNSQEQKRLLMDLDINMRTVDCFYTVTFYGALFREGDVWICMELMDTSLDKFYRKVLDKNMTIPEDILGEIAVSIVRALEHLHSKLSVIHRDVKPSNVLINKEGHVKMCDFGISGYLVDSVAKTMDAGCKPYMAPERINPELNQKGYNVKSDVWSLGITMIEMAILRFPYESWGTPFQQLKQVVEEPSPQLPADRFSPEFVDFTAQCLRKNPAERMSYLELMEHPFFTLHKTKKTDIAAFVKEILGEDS
Chain of CDK8 (P49336 whole entry): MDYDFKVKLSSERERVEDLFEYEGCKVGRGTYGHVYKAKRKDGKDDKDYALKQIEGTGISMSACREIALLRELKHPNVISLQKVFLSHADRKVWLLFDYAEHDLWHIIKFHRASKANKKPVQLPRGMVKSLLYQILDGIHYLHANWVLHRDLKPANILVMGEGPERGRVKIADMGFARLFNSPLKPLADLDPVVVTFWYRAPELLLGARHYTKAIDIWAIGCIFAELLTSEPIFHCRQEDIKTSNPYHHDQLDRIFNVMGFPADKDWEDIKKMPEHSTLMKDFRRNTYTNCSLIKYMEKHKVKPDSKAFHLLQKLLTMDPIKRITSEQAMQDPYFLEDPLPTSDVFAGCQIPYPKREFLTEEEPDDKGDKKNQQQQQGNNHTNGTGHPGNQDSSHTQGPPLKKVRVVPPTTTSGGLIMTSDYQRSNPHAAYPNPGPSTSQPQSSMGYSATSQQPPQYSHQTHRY

Regarding `C[C@@H]1CC(=O)NN=C1c1ccc(NN=C(C#N)C#N)cc1` [levosimendan], the remaining binding at 100 µM at PKAC-beta is 64%; on MEK3 it was 57%; on HIPK1 (setting [2]), 20%; on FGFR1 (setting [2]) it was 50%; on BMPR1A it was 93%; on PRKD3, 100%. Also, the remaining binding at 100 µM on ABL1-nonphosphorylated (setting [2]) came out at 49%; at CHEK1, 85%; at AKT3 (setting [2]) it was 37%; on TAOK1, 100%; on PAK6, 70%; at BMPR1B (setting [2]), 36%. The remaining binding at 100 µM on ULK3 was 77%; at MRCKB it was 74%; on CDK8 it was 100%; on CSNK2A1, 100%; at ERBB4, 63%; at PIK3CA(E542K) it was 100%. Moreover, the remaining binding at 100 µM on NEK10 was 100%. The remaining binding at 10 µM on HIPK1 (setting [1]) turned out to be 95%; on FGFR1 (setting [1]) it was 98%; on ABL1-nonphosphorylated (setting [1]) it was 94%; at AKT3 (setting [1]) it was 96%; at BMPR1B (setting [1]) it was 82%.
